Patent US11572362B2, “Pyrrolo[1,2-b]pyridazine derivatives” (Gilead Sciences, Inc., priority 2018, dated 2023)

Key:
TNFα = test: IRAK4 Monocyte TNFα Cell Based Assay; settings: cryopreserved human monocytes, 50 pg/ml LPS, compound 1 hour pre-treatment, 4 hours stimulation, TNFα by TR-FRET
How it was run: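 Monocytes at 5,000 cells/well were pre-treated with compound for 1 h at 37 °C (0.1% DMSO final), then stimulated with 50 pg/ml LPS for 4 h. Secreted TNFα in supernatant was measured by TR-FRET (665/615 ratio), expressed as % control relative to unstimulated and stimulated cells.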

IRAK4 = IRAK4 (Homo sapiens (Human), UniProt Q9NWZ3); test: IRAK4 Biochemical Assay (TR-FRET/HTRF); settings: IRAK4 enzyme 0.75 nM, 500 μM ATP, 2 μM STK1 peptide, 120 min
Chain of IRAK4 (Q9NWZ3 whole entry): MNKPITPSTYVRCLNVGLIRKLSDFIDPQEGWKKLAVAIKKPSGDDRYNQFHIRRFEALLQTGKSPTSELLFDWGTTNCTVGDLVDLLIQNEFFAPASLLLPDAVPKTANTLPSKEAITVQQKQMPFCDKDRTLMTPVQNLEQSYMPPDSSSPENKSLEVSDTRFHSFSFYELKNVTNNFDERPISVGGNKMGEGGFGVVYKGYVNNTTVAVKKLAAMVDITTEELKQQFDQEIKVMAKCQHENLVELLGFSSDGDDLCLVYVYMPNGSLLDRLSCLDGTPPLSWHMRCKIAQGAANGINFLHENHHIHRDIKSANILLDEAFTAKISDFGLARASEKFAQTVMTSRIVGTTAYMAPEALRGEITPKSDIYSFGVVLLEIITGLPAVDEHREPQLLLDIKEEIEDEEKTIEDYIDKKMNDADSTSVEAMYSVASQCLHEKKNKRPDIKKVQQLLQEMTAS
How it was run: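 Recombinant IRAK4 (0.75 nM) with 2 µM STK1 peptide and 500 µM ATP in pH 7.0 HEPES/Mg buffer; compound preincubated 15 min with enzyme and peptide, then 120 min reaction at room temperature. HTRF readout: cryptate anti-phospho-peptide antibody, 665/615 nm ratio; % inhibition against no-inhibitor and saturating-staurosporine controls.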

Compound | EC50 (TNFα; Monocyte) [nM] | IC50 (IRAK4) [nM] | EC50 (TNFα) [nM]
CC(C)(O)[C@H](F)CNC(=O)c1cnc(-c2ccc3cc(C#N)cnn23)cc1N[C@H]1CC[C@H](C2CCOCC2)CC1 [Compound 67, 6-(3-cyanopyrrolo[1,2-b]pyridazin-7-yl)-N-((R)-2-fluoro-3-hydroxy-3-methylbutyl)-4-(((1r,4R)-4-(tetrahydro-2H-pyran-4-yl)cyclohexyl)amino)nicotinamide] | 41 | 1 | –
CC(C)(O)[C@H](F)CNC(=O)c1cnc(-c2ccc3cc(C#N)cnn23)cc1NC12CCC(N3CCC(F)(F)CC3)(CC1)CC2 [Compound 68, (R)-6-(3-cyanopyrrolo[1,2-b]pyridazin-7-yl)-4-((4-(4,4-difluoropiperidin-1-yl)bicyclo[2.2.2]octan-1-yl)amino)-N-(2-fluoro-3-hydroxy-3-methylbutyl)nicotinamide] | 38 | < 1 | –
CC(C)(O)[C@H](F)CNC(=O)c1cnc(-c2ccc3cc(C#N)cnn23)cc1NC12CCC(N3CCOCC3=O)(CC1)CC2 [Compound 69, (R)-6-(3-cyanopyrrolo[1,2-b]pyridazin-7-yl)-N-(2-fluoro-3-hydroxy-3-methylbutyl)-4-((4-(3-oxomorpholino)bicyclo[2.2.2]octan-1-yl)amino)nicotinamide] | 15 | < 1 | –

Now from value to compound:

EC50 (TNFα; Monocyte) [nM] | IC50 (IRAK4) [nM] | EC50 (TNFα) [nM] | Compound
– | 0.639 | 31.3 | CC(C)(O)[C@H](F)CNC(=O)c1cnc(-c2ccc3cc(C#N)cnn23)cc1N[C@H]1CC[C@H](c2nnn(C(F)F)n2)CC1 [Compound 72, 6-(3-cyanopyrrolo[1,2-b]pyridazin-7-yl)-4-(((1r,4R)-4-(2-(difluoromethyl)-2H-tetrazol-5-yl)cyclohexyl)amino)-N-((R)-2-fluoro-3-hydroxy-3-methylbutyl)nicotinamide]
71.4 | 0.868 | – | CC(C)(O)[C@H](F)CNC(=O)c1cnc(-c2ccc3cc(C#N)cnn23)cc1N[C@H]1CC[C@H](c2nnc(C(F)F)o2)OC1 [Compound 74, 6-(3-cyanopyrrolo[1,2-b]pyridazin-7-yl)-4-(((3S,6R)-6-(5-(difluoromethyl)-1,3,4-oxadiazol-2-yl)tetrahydro-2H-pyran-3-yl)amino)-N-((R)-2-fluoro-3-hydroxy-3-methylbutyl)nicotinamide]
